Our source for the EC50 values is US12390536B2, “Antibody-drug complex containing toll-like receptor 7/8 dual agonist compound” (ASTELLAS PHARMA INC., priority 2022, dated 2025).

For one assay, the target named is T1, human TLR8 (Homo sapiens, UniProt Q9NR97).
T1 construct: expressed in transfected cells
T1 sequence (Q9NR97 27-1041): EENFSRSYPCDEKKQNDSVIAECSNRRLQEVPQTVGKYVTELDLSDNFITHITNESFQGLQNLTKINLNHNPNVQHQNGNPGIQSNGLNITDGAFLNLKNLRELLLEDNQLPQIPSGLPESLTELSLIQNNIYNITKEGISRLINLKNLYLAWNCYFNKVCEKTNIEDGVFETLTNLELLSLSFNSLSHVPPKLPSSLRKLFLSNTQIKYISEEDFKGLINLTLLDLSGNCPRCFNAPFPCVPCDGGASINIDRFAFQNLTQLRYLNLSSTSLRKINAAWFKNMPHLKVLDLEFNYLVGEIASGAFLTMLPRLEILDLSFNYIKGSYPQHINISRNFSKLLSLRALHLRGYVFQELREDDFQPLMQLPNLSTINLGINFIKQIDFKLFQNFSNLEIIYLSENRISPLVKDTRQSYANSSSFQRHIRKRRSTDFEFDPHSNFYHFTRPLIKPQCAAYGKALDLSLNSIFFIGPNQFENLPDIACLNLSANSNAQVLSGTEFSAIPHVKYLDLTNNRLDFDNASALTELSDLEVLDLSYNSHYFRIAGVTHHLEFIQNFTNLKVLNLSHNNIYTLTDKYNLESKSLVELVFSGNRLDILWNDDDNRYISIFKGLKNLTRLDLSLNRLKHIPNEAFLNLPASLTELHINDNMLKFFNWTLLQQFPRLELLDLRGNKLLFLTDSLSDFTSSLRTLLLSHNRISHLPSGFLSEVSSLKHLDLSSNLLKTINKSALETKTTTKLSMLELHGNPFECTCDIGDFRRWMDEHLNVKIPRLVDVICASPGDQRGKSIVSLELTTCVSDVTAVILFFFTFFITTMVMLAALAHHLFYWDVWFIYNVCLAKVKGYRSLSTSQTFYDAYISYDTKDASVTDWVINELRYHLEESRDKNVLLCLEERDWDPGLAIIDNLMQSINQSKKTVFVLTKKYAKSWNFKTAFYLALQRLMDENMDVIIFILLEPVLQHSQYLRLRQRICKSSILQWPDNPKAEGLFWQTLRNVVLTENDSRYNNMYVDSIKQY
The assay is described as follows: TLR7/8 reporter assay (HEK293, NFκB Nanoluc luciferase reporter), human TLR8. Type of assay: cell-based. To be noted: read-out: hTLR8 EC50. Here is the method:
(§1) HEK293 cells (ATCC, #CRL-1573) were co-transfected with an expression vector having a nucleotide sequence encoding a TLR (human TLR7, human TLR8 or mouse TLR7) protein and a Nanoluc PEST luciferase reporter vector having an NFκB response element sequence (Genbank: JQ513377 bases 33 to 84) integrated therein. Thereafter, the transfected cells were cultured in DMEM (Sigma-Aldrich, #D5796-500 mL) containing Geneticin (Gibco, #10131-027) at a final concentration of 800 μg/mL, Hygromycin B (Invitrogen, #10687010) at a final concentration of 500 μg/mL, penicillin streptomycin (Gibco, #15070-063) at a final concentration of 1% and a 10% fetal bovine serum (FBS) (HyClone, #SH30084.03) to obtain a stable cell line for expression.
(§2) To reporter cells obtained above, DMEM containing 10% FBS was added to prepare a suspension of 1×10^5 cells/mL. The suspension was added to the wells of a 384-well white plate coated with collagen I (hereinafter referred to as “384-well plate”, Corning, #356703) at a rate of 20 μL per well. The cells were cultured in the conditions of 37° C. and 5% CO2, overnight (18 hours) and allowed to adhere to the plate. A test sample was dissolved in DMSO. The solution was diluted by adding DMEM medium containing 10% FBS to the solution such that the concentration becomes 5-fold as high as a final concentration. The diluted DMEM medium was added to the wells of the 384-well plate at a ratio of 5 μL/well. After the medium was further incubated in the conditions of 37° C. and 5% CO2 for 24 hours, the plate was taken out and allowed to stand still at room temperature for 10 minutes. Thereafter, chemiluminescence was measured using Nano-Glo Luciferase Assay System (Promega, #N1120) and EnVision 2104 (PerkinElmer) plate reader. A dose-response curve was prepared for each test sample and the EC50 value was obtained as a concentration at 50% of the maximum signal. In the table, hTLR7 represents human TLR7 and hTLR8 represents human TLR8; and mTLR7 represents mouse TLR7. A data item attached with an asterisk (*) indicates the result of 7 hour-incubation and other data items are the results of 24-hour incubation.
(In general: A reporter such as luciferase makes a cellular process visible.)

The target of another assay is T2, human TLR7 (Homo sapiens, UniProt Q9NYK1).
T2 construct: expressed in transfected cells
T2 sequence (Q9NYK1 27-1049): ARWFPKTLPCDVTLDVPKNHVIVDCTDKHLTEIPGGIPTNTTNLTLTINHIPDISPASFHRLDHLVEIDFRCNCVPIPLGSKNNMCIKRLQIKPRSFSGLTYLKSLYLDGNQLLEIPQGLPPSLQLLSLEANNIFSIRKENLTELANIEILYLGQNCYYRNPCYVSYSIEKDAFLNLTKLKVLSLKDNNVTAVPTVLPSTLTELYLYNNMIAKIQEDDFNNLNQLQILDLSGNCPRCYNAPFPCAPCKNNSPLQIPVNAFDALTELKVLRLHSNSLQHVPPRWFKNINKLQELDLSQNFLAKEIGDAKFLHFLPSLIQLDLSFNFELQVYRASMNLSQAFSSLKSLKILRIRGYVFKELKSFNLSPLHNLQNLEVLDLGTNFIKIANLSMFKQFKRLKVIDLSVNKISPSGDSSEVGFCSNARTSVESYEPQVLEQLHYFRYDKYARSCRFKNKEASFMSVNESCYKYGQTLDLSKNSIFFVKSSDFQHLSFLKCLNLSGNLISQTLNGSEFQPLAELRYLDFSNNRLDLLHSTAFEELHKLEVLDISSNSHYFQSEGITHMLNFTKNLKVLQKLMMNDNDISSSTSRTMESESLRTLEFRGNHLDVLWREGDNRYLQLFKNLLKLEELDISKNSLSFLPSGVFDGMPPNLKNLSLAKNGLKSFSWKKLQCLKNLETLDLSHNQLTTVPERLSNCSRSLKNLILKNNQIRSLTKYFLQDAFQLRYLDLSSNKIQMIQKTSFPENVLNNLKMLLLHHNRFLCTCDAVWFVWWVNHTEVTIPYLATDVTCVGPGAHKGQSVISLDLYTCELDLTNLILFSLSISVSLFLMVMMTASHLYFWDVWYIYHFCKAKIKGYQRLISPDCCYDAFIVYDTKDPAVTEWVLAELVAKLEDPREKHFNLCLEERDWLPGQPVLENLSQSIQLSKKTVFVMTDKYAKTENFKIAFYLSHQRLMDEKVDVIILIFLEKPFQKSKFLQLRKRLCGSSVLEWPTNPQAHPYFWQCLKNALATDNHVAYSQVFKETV
The assay is described as follows: TLR7/8 reporter assay (HEK293, NFκB Nanoluc luciferase reporter), human TLR7. Type of assay: cell-based. To be noted: 24-hour incubation; read-out: hTLR7 EC50. Here is the method: as §1, §2

Where a name gives a salt, the structure may show the parent alone. Read-outs that look alike come from different tables or passages of the source.

Broadly, the EC50 is the concentration giving half of the maximal effect. Take `CCCCCSc1nc(N)nc2ccn(Cc3ccc(CN4CCNCC4)cc3OC)c12` [Ex4, 5-({2-methoxy-4-[(piperazin-1-yl)methyl]phenyl}methyl)-4-(pentylsulfanyl)-5H-pyrrolo[3,2-d]pyrimidin-2-amine]: the EC50 stood at 2480 nM at human TLR8 (24-hour incubation) and 54.2 nM at human TLR7.

As to `CCCCCNc1nc(N)nc2ccn(Cc3ccc(CN4CCNC[C@H]4CF)cc3OC)c12` [Ex1, 5-[(4-{[(2S)-2-(fluoromethyl)piperazin-1-yl]methyl}-2-methoxyphenyl)methyl]-N^4-pentyl-5H-pyrrolo[3,2-d]pyrimidine-2,4-diamine], the EC50 was determined as 220 nM on human TLR8 (24-hour incubation) and 1.12 nM at human TLR7.

On to `COc1cc(CN2CCNC[C@H]2CF)ccc1Cn1ccc2nc(N)nc(SCc3cc(C)on3)c21` [Ex11], for which the figures for the EC50 on human TLR8 (24-hour incubation) and at human TLR7 were 13300 nM and 17.8 nM, respectively.

For `CCCCCSc1nc(N)nc2ccn(Cc3ccc(CN4CCC[C@H]4CO)cc3OC)c12` [Ex5, {(2S)-1-[(4-{[2-amino-4-(pentylsulfanyl)-5H-pyrrolo[3,2-d]pyrimidin-5-yl]methyl}-3-methoxyphenyl)methyl]pyrrolidin-2-yl}methanol], the EC50 was 11700 nM on human TLR8 (24-hour incubation) and 45 nM on human TLR7.

As to `CCCCCNc1nc(N)nc2c(Cl)cn(Cc3ccc(CN4CCC[C@H]4CO)cc3OC)c12` [Ex6, {(2S)-1-[(4-{[2-amino-7-chloro-4-(pentylamino)-5H-pyrrolo[3,2-d]pyrimidin-5-yl]methyl}-3-methoxyphenyl)methyl]pyrrolidin-2-yl}methanol], the EC50 at human TLR8 (24-hour incubation) was 964 nM; on human TLR7, 3.22 nM.

Consider `CCCCCNc1nc(N)nc2ccn(Cc3ccc(CC4CCNCC4)cc3OC)c12` [Ex9, 5-({2-methoxy-4-[(piperidin-4-yl)methyl]phenyl}methyl)-N^4-pentyl-5H-pyrrolo[3,2-d]pyrimidine-2,4-diamine], for which the EC50 on human TLR8 (24-hour incubation) was 1180 nM; at human TLR7 it was 2.78 nM.

With `CCCCCNc1nc(N)nc2c(Cl)cn(Cc3ccc(CN4CCC[C@H]4C(C)(C)O)cc3OC)c12` [Ex18], the EC50 at human TLR8 (24-hour incubation) came out at 3630 nM; on human TLR7 it was 6.57 nM.

Consider `CCCCCNc1nc(N)nc2ccn(Cc3ccc(CNCC4CCC4)cc3OC)c12` [Ex12], for which the figures for the EC50 on human TLR8 (asterisk (*): 7 hour-incubation) and on human TLR7 were 685 nM and 1.87 nM, respectively.

Take `CCCCCSc1nc(N)nc2ccn(Cc3ccc(CN4CC[C@@H](CN)C4)cc3OC)c12` [Ex15]: the EC50 on human TLR8 (24-hour incubation) is 4880 nM; at human TLR7 it was 138 nM.

Turning to `CCCCCSc1nc(N)nc2ccn(Cc3ccc(CN4CCC(O)CC4)cc3OC)c12` [Ex14], the EC50 amounted to 6590 nM at human TLR8 (24-hour incubation) and 28.8 nM at human TLR7.

In the case of `CCCCCNc1nc(N)nc2c(Cl)cn(Cc3ccc(CN4CC[C@H]4CO)cc3OC)c12` [Ex17], the EC50 at human TLR8 (24-hour incubation) was 3740 nM; on human TLR7, 2.52 nM.

Consider `CCCCCNc1nc(N)nc2ccn(Cc3ccc(CNC4CC4)cc3OC)c12` [Ex3, 5-({4-[(cyclopropylamino)methyl]-2-methoxyphenyl}methyl)-N^4-pentyl-5H-pyrrolo[3,2-d]pyrimidine-2,4-diamine], for which the EC50 came out at 2160 nM on human TLR8 (24-hour incubation) and 3.47 nM at human TLR7.

For the compound `CCCCCNc1nc(N)nc2ccn(Cc3ccc(CN4CCN[C@@H](CF)C4)cc3OC)c12` [Ex2, 5-[(4-{[(3R)-3-(fluoromethyl)piperazin-1-yl]methyl}-2-methoxyphenyl)methyl]-N^4-pentyl-5H-pyrrolo[3,2-d]pyrimidine-2,4-diamine (trifluoroacetic acid) salt], the EC50 was 1970 nM at human TLR8 (24-hour incubation) and 1.77 nM on human TLR7.

With `CCCCCNc1nc(N)nc2cc(C)n(Cc3ccc(CN4CCNCC4)cc3OC)c12` [Ex8, 5-({2-methoxy-4-[(piperazin-1-yl)methyl]phenyl}methyl)-6-methyl-N^4-pentyl-5H-pyrrolo[3,2-d]pyrimidine-2,4-diamine hydrochloride], the EC50 at human TLR8 (24-hour incubation) came out at 2110 nM; on human TLR7 it was 11.3 nM.

On to `CCCCCNc1nc(N)nc2c(Br)cn(Cc3ccc(CN4CCC[C@H]4CO)cc3OC)c12` [Ex7, {(2S)-1-[(4-{[2-amino-7-bromo-4-(pentylamino)-5H-pyrrolo[3,2-d]pyrimidin-5-yl]methyl}-3-methoxyphenyl)methyl]pyrrolidin-2-yl}methanol], for which the values for the EC50 at human TLR8 (24-hour incubation) and on human TLR7 were 2000 nM and 8.1 nM, respectively.

Turning to `CCCCCNc1nc(N)nc2ccn(Cc3ccc(CN4CCNC[C@@H]4CF)cc3OC)c12` [Ex10, 5-[(4-{[(2R)-2-(fluoromethyl)piperazin-1-yl]methyl}-2-methoxyphenyl)methyl]-N^4-pentyl-5H-pyrrolo[3,2-d]pyrimidine-2,4-diamine], the EC50 at human TLR8 (24-hour incubation) came out at 716 nM; on human TLR7 it was 2.74 nM.

Consider `CCCCCSc1nc(N)nc2ccn(Cc3ccc(CN4CC[C@H]4CO)cc3OC)c12` [Ex13], for which the EC50 came to 6220 nM on human TLR8 (24-hour incubation) and 23.3 nM on human TLR7.
